Assay results taken from patent US20240182465A1 (GENFLEET THERAPEUTICS (SHANGHAI) INC., priority 2021, published 2024).
Structures can show the parent of a compound that is named as a salt.

Experiments:
HPK1 [1] = target: T1, HPK1 (Homo sapiens, UniProt Q92918); experiment: HPK1 kinase activity assay (ADP-Glo); details: HPK1 Kinase activity IC50 (nM), 1 nM HPK1, 10 μM ATP, 0.1 μg/μL MBP
T1 sequence (Q92918 1-346 limits assumed): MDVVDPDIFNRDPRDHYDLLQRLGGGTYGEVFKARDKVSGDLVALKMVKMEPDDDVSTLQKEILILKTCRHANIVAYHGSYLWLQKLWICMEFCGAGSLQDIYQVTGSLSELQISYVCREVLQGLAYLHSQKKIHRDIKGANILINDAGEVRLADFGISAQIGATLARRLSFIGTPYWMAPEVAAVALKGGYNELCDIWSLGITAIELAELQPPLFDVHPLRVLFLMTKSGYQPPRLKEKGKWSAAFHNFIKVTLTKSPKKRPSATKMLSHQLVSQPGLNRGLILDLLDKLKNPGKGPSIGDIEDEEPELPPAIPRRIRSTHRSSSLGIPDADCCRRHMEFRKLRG
Procedure: Preparation of buffer: 1× reaction buffer (40 mM Tris-HCl, 20 mM MgCl2, 0.01% Brij35, 50 μM DTT, 0.1 mg/ml BSA) was prepared using sterile water, which was prepared and used on the day of the experiment.
(§1) Preparation of 1000× drug stock plate: a 1000× compound stock plate was prepared. […] The compound stock plate was sealed with a sealing film and stored in a −20° C. refrigerator for later use.
Compound preparation and dosing: the 1000× drug stock plate was taken and melted at room temperature in the dark. Then 5× drug intermediate plate was prepared using reaction buffer and mixed well. 2 μL was transferred from the 5× drug intermediate plate into a 384-well plate, and negative control well and positive control well (in which 2 μL reaction buffer containing 0.5% DMSO was added) were set. Each point was repeated twice.
Preparation and incubation of reaction mixture: HPK1 protein was diluted to a 2.5× working solution with reaction buffer. 4 μL 2.5×HPK1 protein was added to each well containing test compound and positive control well, and 4 μL of reaction buffer without HPK1 protein was added to the negative control well. The obtained mixture was centrifuged at 1000 rpm for 1 min and then incubated in a 20° C. incubator for 15 min. A 2.5× mixed working solution of MBP protein and ATP was prepared with reaction buffer at concentrations of 0.5 μg/μL and 50 PM, respectively. 4 μL of the mixed working solution of MBP and ATP was added to each well, centrifuged at 1000 rpm for 1 min, and then incubated in a 20° C. incubator for 90 min.
ADP-Glo detection and reading plate: 10 μl ADP-Glo was added to each well of the test plate. The resulting mixture was centrifuged at 1000 rpm for 1 min and incubated in a 20° C. incubator for 60 min. Then 10 μL of the final incubation solution was transferred from the test plate to a new 384-well plate. 10 μL of kinase detection reagent was added to each well, centrifuged at 400 g for 1 min, and incubated in a 20° C. incubator for 60 min. Chemiluminescent signals were read by a microplate reader.

HPK1 [2] = target: HPK1 (Homo sapiens, UniProt Q92918); experiment: SLP76 phosphorylation assay (intracellular HPK1 inhibitory activity, p-SLP76 Ser376 sandwich ELISA); details: p-SLP76 IC50(nM), Jurkat, Clone E6-1 cells; 1 h compound pre-incubation, anti-CD3 beads stimulation 20 min; SLP76 phosphorylation at S376
Target sequence in this assay (Q92918 whole entry): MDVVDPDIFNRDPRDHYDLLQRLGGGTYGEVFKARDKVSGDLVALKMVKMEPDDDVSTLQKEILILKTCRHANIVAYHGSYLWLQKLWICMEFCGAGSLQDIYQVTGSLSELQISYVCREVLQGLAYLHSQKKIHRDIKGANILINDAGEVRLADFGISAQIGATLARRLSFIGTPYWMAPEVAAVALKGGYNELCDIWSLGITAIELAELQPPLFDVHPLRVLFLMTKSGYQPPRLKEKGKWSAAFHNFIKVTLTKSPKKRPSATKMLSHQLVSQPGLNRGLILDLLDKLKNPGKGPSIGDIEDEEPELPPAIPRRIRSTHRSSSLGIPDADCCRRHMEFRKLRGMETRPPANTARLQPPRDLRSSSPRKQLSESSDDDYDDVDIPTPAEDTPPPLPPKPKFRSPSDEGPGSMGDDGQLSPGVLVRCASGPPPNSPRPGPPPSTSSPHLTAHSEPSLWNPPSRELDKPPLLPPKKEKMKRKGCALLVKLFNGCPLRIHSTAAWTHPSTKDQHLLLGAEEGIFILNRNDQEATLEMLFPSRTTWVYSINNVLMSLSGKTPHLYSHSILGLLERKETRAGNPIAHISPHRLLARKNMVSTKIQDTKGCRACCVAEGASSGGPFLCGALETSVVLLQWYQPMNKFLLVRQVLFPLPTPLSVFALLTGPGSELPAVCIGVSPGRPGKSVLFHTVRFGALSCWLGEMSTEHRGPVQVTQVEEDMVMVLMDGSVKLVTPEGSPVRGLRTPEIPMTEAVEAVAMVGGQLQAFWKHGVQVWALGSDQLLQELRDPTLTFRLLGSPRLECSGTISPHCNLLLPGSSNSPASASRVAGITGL
Procedure: Intracellular HPK1 inhibitory activity was tested by the detection of SLP76 phosphorylation at S376.
as §1
Preparation of Beads wash buffer: 0.1 mL FBS and 0.4 mL 0.5 M EDTA (with a final concentration of 2 mM) were added to 100 mL PBS and stored in a 4° C. refrigerator for later use.
100× Protease Inhibitor Cocktail in 1/20 total volume was added and stored on wet ice for later use. The buffer was ready to use.
Cell inoculation and dosing: the 1000× drug stock plate was taken and melted at room temperature in the dark. […] Jurkat cells in the logarithmic growth phase were selected and collected. […] The cells were inoculated into a 96-well plate (the volume was 90 μL per well), and a blank control well (without cells inoculation, and in which 110 μL of medium was added) was set. 10 μL of a drug-containing culture medium (10×) was transferred from the 10× drug intermediate plate into the 96-well cell plate (with a final concentration of 0.1% DMSO), and set a DMSO control group (in which 0.1% DMSO was added to the treated cells), a stimulated control group (in which 10 μL of culture medium was added to treat cells) and an unstimulated group (in which 10 μL of culture medium was added to treat cells). The wells were duplicated, gently patted, mixed, and then placed into a 5% CO2 incubator at 37° C. for 1 h.
Anti-CD3 beads stimulation: Dynabeads anti-human CD3 was taken, shaken, and mixed for 60 s. The required volume of beads was pipetted, and an equal volume or at least 1 mL of washing solution was added to wash once. Fresh complete medium was then added to resuspend and adjust the density of the beads to 4×10^7/mL, and the beads were placed on ice for later use. At the end of drug pre-incubation, the cell culture plate was taken out. 10 μL Dynabeads anti-human CD3 was added to each well to treat the cells, and 10 μL the culture medium was added to the unstimulated group. The cell culture plate was shaken to mix well at 2500 rpm for 10 s, and then placed into a 5% CO2 incubator at 37° C. and continued to culture for 20 min.
Detection of p-SLP76 protein level. PathScan Phospho-SLP-76 (Ser376) Sandwich ELISA Kit was applied to detect p-SLP76 protein level. At the end of the Anti-CD3 beads stimulation, the cell culture plate was removed from the incubator. […] After lysis, the cell culture plate was centrifuged at 4° C., 400×g for 5 min. 25 μL of sample and 75 μL of sample diluent were added to each well, and the plate was placed in a 5% CO2 incubator at 37° C. for 2 h. The subsequent detection steps were carried out following the kit instructions, and the absorbance (OD value) of each well was read at 450 nm by a microplate reader.

Cc1c[nH]c2ncc(-c3cc4c(c([C@@H]5CCCN5)c3)CN(C(=O)c3cnn(CC(F)F)c3)CC4)cc12 [Compound Z306, (S)-[1-(2,2-difluoroethyl)pyrazol-4-yl]-[6-(3-methyl-1H-pyrrolo[2,3-b]pyridin-5-yl)-8-[pyrrolidin-2-yl]-3,4-dihydro-1H-isoquinolin-2-yl]methanone]
IC50 (HPK1 [1]): 0.64 nM | IC50 (HPK1 [2]): 170 nM

Cc1c[nH]c2ncc(-c3cc4c(c([C@@H]5CCCN5)c3)CCN(C(=O)[C@@H]3CCOC3)C4)cc12 [Compound Z293, (7-(3-methyl-1H-pyrrolo[2,3-b]pyridin-5-yl)-5-((S)-pyrrolidin-2-yl)-3,4-dihydroisoquinolin-2(1H)-yl) ((R)-tetrahydrofuran-3-yl)methanone]
IC50 (HPK1 [1]): 0.47 nM | IC50 (HPK1 [2]): 113 nM

Cc1c[nH]c2ncc(-c3cc4c(c(C(C)N(C)C)c3)COCC4)cc12 (stereo not drawn) [Compound Z108-1, N,N-dimethyl-1-(6-(3-methyl-1H-pyrrolo[2,3-b]pyridin-5-yl)isochroman-8-yl)ethan-1-amine]
IC50 (HPK1 [1]): 4.12 nM | IC50 (HPK1 [2]): 571 nM

CCN1Cc2cc(-c3cnc4[nH]cc(C)c4c3)cc([C@@H]3CCCN3)c2CC1=O [Compound Z292, (S)-2-ethyl-7-(3-methyl-1H-pyrrolo[2,3-b]pyridin-5-yl)-5-(pyrrolidin-2-yl)-1,4-dihydroisoquinolin-3(2H)-one]
IC50 (HPK1 [1]): 0.97 nM | IC50 (HPK1 [2]): 272 nM

Cc1c[nH]c2ncc(-c3cc4c(c([C@@H]5CCCN5)c3)CN(c3ccncc3)CC4)cc12 [Compound Z291, (S)-6-(3-methyl-1H-pyrrolo[2,3-b]pyridin-5-yl)-2-(pyridin-4-yl)-8-(pyrrolidin-2-yl)-1,2,3,4-tetrahydroisoquinoline]
IC50 (HPK1 [1]): 0.6 nM | IC50 (HPK1 [2]): 162 nM

Cc1c[nH]c2ncc(-c3cc4c(c([C@@H]5CCCN5)c3)CN(C(=O)[C@H](O)c3ccccc3)CC4)cc12 [Compound Z289, (R)-2-hydroxy-1-(6-(3-methyl-1H-pyrrolo[2,3-b]pyridin-5-yl)-8-((S)-pyrrolidin-2-yl)-3,4-dihydroisoquinolin-2(1H)-yl)-2-acetophenone]
IC50 (HPK1 [1]): 1.35 nM | IC50 (HPK1 [2]): 378 nM

Cc1[nH]c2ncc(-c3cc4c(c([C@@H]5CCCN5)c3)CN(C(=O)[C@](C)(O)C(F)(F)F)CC4)cc2c1C [Compound Z414, (S)-1-(6-(2,3-dimethyl-1H-pyrrolo[2,3-b]pyridin-5-yl)-8-((S)-pyrrolidin-2-yl)-3,4-dihydroisoquinolin-2(1H)-yl)-3,3,3-trifluoro-2-hydroxy-2-methylpropan-1-one]
IC50 (HPK1 [1]): 20.6 nM | IC50 (HPK1 [2]): 2610 nM

Cc1c[nH]c2ncc(-c3cc4c(c([C@@H]5CCCN5)c3)CN(C(=O)C3(O)CCOCC3)CC4)cc12 [Compound Z244, (S)-(4-hydroxytetrahydro-2H-pyran-4-yl)(6-(3-methyl-11H-pyrrolo[2,3-b]pyridin-5-yl)-8-(pyrrolidin-2-yl)-3,4-dihydroisoquinolin-2(1H)-yl)methanone]
IC50 (HPK1 [1]): 0.35 nM | IC50 (HPK1 [2]): 96.6 nM

CNCc1cc(-c2cnc3[nH]cc(C)c3c2)cc2c1COCC2 [Compound Z298, N-methyl-1-(6-(3-methyl-1H-pyrrolo[2,3-b]pyridin-5-yl)isochroman-8-yl)methanamine]
IC50 (HPK1 [1]): 3.3 nM | IC50 (HPK1 [2]): 668 nM

Cc1c[nH]c2ncc(-c3cc4c(c([C@@H]5CCCN5)c3)CN(C(=O)c3cnn(C5CC5)c3C)CC4)cc12 [Compound Z346, (S)-(1-cyclopropyl-5-methyl-1H-pyrazol-4-yl)-[6-(3-methyl-1H-pyrrolo[2,3-b]pyridin-5-yl)-8-[pyrrolidin-2-yl]-3,4-dihydroisoquinolin-2(1H)-yl]methanone]
IC50 (HPK1 [1]): 0.43 nM | IC50 (HPK1 [2]): 226 nM

Cc1cc(N2CCc3cc(-c4cnc5[nH]cc(C)c5c4)cc([C@@H]4CCCN4)c3C2)ccn1 [Compound Z320, (S)-6-(3-methyl-1H-pyrrolo[2,3-b]pyridin-5-yl)-2-(2-methylpyridin-4-yl)-8-(pyrrolidin-2-yl)-1,2,3,4-tetrahydroisoquinoline formate]
IC50 (HPK1 [1]): 0.73 nM | IC50 (HPK1 [2]): 121 nM

Cc1c[nH]c2ncc(-c3cc4c(c([C@@H]5CCCN5)c3)CN(C(=O)c3cccnc3)CC4)cc12 [Compound Z210, (S)-1-(6-(3-methyl-1H-pyrrolo[2,3-b]pyridin-5-yl)-8-(pyrrolidin-2-yl)-3,4-dihydroisoquinolin-2(1H)-yl)(pyridin-3-yl)methanone]
IC50 (HPK1 [1]): 0.62 nM | IC50 (HPK1 [2]): 227 nM

Cc1nn(C)cc1C(=O)N1CCc2cc(-c3cnc4[nH]cc(C)c4c3)cc([C@@H]3CCCN3)c2C1 [Compound Z282, (S)-(1,3-dimethyl-1H-pyrazol-4-yl)(6-(3-methyl-1H-pyrrolo[2,3-b]pyridin-5-yl)-8-(pyrrolidin-2-yl)-3,4-dihydroisoquinolin-2(1H)-yl)methanone]
IC50 (HPK1 [1]): 0.38 nM | IC50 (HPK1 [2]): 471 nM

Cc1c[nH]c2ncc(-c3cc4c(c([C@@H]5CCCN5)c3)CN(C(=O)N3CCOCC3(C)C)CC4)cc12 [Compound Z361]
IC50 (HPK1 [1]): 0.36 nM | IC50 (HPK1 [2]): 102 nM

Cc1c[nH]c2ncc(-c3cc4c(c([C@@H]5CCCN5)c3)CCN(C(=O)[C@H]3CCOC3)C4)cc12 [Compound Z294, (7-(3-methyl-1H-pyrrolo[2,3-b]pyridin-5-yl)-5-((S)-pyrrolidin-2-yl)-3,4-dihydroisoquinolin-2(1H)-yl) ((S)-tetrahydrofuran-3-yl)methanone]
IC50 (HPK1 [1]): 0.52 nM | IC50 (HPK1 [2]): 95.3 nM

N#CC1(c2c[nH]c3ncc(-c4cc5c(c([C@@H]6CCCN6)c4)COCC5)cc23)CC1 [Compound Z137, (S)-1-(5-(8-(pyrrolidin-2-yl)isochroman-6-yl)-1H-pyrrolo[2,3-b]pyridin-3-yl)cyclopropane-1-carbonitrile]
IC50 (HPK1 [1]): 0.37 nM | IC50 (HPK1 [2]): 159 nM

CO[C@@H]1CCN(C(=O)N2CCc3cc(-c4cnc5[nH]cc(C)c5c4)cc([C@@H]4CCCN4)c3C2)C1 [Compound Z357-2, ((R)-3-methoxypyrrolidin-1-yl)(6-(3-methyl-1H-pyrrolo[2,3-b]pyridin-5-yl)-8-((S)-pyrrolidin-2-yl)-3,4-dihydroisoquinolin-2(1H)-yl)methanone]
IC50 (HPK1 [1]): 0.26 nM | IC50 (HPK1 [2]): 80.7 nM

C=C1COCc2c(cc(-c3cnc4[nH]cc(C)c4c3)cc2[C@@H]2CCCN2)C1 [Compound Z230, (S)-3-methyl-5-(4-methylene-9-(pyrrolidin-2-yl)-1,3,4,5-tetrahydrobenzo[c]oxepin-7-yl)-1H-pyrrolo[2,3-b]pyridine]
IC50 (HPK1 [1]): 1.04 nM | IC50 (HPK1 [2]): 438 nM

Cc1c[nH]c2ncc(-c3cc4c(c([C@@H]5CCCN5)c3)CN(C(=O)c3cc(C)n(C)n3)CC4)cc12 [Compound Z354]
IC50 (HPK1 [1]): 1.02 nM | IC50 (HPK1 [2]): 269 nM

Cc1c[nH]c2ncc(-c3cc4c(c([C@@H]5CCCN5)c3)CN(C(=O)c3ccncn3)CC4)cc12 [Compound Z221, (S)-(6-(3-methyl-1H-pyrrolo[2,3-b]pyridin-5-yl)-8-(pyrrolidin-2-yl)-3,4-dihydroisoquinolin-2(1H)-yl) (pyrimidin-4-yl)methanone]
IC50 (HPK1 [1]): 1.27 nM | IC50 (HPK1 [2]): 215 nM

Cc1cc(C(=O)N2Cc3cc(-c4cnc5[nH]cc(C)c5c4)cc([C@@H]4CCCN4)c3C2)cc(C)n1 [Compound Z262, (S)-(2,6-dimethylpyridin-4-yl)(6-(3-methyl-1H-pyrrolo[2,3-b]pyridin-5-yl)-4-(pyrrolidin-2-yl)isoindolin-2-yl)methanone hydrochloride]
IC50 (HPK1 [1]): 1.72 nM | IC50 (HPK1 [2]): 627 nM

Cc1c[nH]c2ncc(-c3cc4c(c([C@@H]5CCCN5)c3)CN(C(=O)C3CC3)CC4)cc12 [Compound Z122, (S)-1-(6-(3-methyl-1H-pyrrolo[2,3-b]pyridin-5-yl)-8-(pyrrolidin-2-yl)-3,4-dihydroisoquinolin-2(1H)-yl)cyclopropyl methyl ketone]
IC50 (HPK1 [1]): 0.71 nM | IC50 (HPK1 [2]): 179 nM

COC1(C(=O)N2CCc3cc(-c4cnc5[nH]cc(C)c5c4)cc([C@@H]4CCCN4)c3C2)CC1 [Compound Z245, (S)-(1-methoxycyclopropyl)(6-(3-methyl-1H-pyrrolo[2,3-b]pyridin-5-yl)-8-(pyrrolidin-2-yl)-3,4-dihydroisoquinolin-2(1H)-yl)methanone]
IC50 (HPK1 [1]): 0.45 nM | IC50 (HPK1 [2]): 119 nM

CC(=O)N1CCc2c(cc(-c3cnc4[nH]cc(C)c4c3)cc2[C@@H]2CCCN2)C1 [Compound Z139, (S)-1-(7-(3-methyl-1H-pyrrolo[2,3-b]pyridin-5-yl)-5-(pyrrolidin-2-yl)-3,4-dihydroisoquinolin-2(1H)-yl)ethan-1-one]
IC50 (HPK1 [1]): 0.39 nM | IC50 (HPK1 [2]): 159 nM

Cc1c[nH]c2ncc(-c3cc4c(c([C@@H]5CCCN5)c3)CCN(c3ccnn3C)C4)cc12 [Compound Z307, (S)-2-(1-methyl-1H-pyrazol-5-yl)-7-(3-methyl-1H-pyrrolo[2,3-b]pyridin-5-yl)-5-(pyrrolidin-2-yl)-1,2,3,4-tetrahydroisoquinoline]
IC50 (HPK1 [1]): 0.53 nM | IC50 (HPK1 [2]): 277 nM

Cc1c[nH]c2ncc(-c3cc4c(c([C@@H]5CCCN5)c3)CCN(C(=O)C3(O)CC3)C4)cc12 [Compound Z310, (S)-(1-hydroxycyclopropyl)(7-(3-methyl-1H-pyrrolo[2,3-b]pyridin-5-yl)-5-(pyrrolidin-2-yl)-3,4-dihydroisoquinolin-2(1H)-yl)methanone]
IC50 (HPK1 [1]): 1.79 nM | IC50 (HPK1 [2]): 567 nM

Cc1c[nH]c2ncc(-c3cc4c(c([C@@H]5CCCN5)c3)CN(C(=O)N3CCOCC3)CC4)cc12 [Compound Z356, (S)-(6-(3-methyl-1H-pyrrolo[2,3-b]pyridin-5-yl)-8-(pyrrolidin-2-yl)-3,4-dihydroisoquinolin-2(1H)-yl) (morpholino)methanone]
IC50 (HPK1 [1]): 0.28 nM | IC50 (HPK1 [2]): 62.1 nM
